# Read-outs that look alike come from different tables or passages of the source.
# Legend:
# rnADAMTS-5 (1-564-6H) = rnADAMTS-5 (1-564-6H) (Rattus norvegicus, UniProt Q6TY19); details: read-out: Rat ADAMTS-5 potency IC50
# human TACE = human TACE (Homo sapiens (Human), UniProt P78536); details: read-out: TACE potency IC50
# human ADAMTS-5 [1] = target: T1, human ADAMTS-5 (Homo sapiens (Human), UniProt Q9UNA0); details: read-out: hADAMTS-5 potency IC50
# human MMP13 = human MMP13 (Homo sapiens (Human), UniProt P45452); details: read-out: hMMP-13 potency IC50
# Procedure: Human MMP13 is preactivated by incubated the enzyme in the same buffer complemented with 1 mM freshly prepared p-Aminophenylmercuric acetate (AMPA) for 1 hour at 37° C.
# human ADAMTS-5 [2] = target: T1, human ADAMTS-5; details: read-out: hADAMTS-5 potency IC50; remark: listed apart in the source
# Procedure: Finally, the fluorescence is read on the Envision (Perkin Elmer) after an incubation of 90 min at 37° C.
# T1 sequence (Q9UNA0 262-930): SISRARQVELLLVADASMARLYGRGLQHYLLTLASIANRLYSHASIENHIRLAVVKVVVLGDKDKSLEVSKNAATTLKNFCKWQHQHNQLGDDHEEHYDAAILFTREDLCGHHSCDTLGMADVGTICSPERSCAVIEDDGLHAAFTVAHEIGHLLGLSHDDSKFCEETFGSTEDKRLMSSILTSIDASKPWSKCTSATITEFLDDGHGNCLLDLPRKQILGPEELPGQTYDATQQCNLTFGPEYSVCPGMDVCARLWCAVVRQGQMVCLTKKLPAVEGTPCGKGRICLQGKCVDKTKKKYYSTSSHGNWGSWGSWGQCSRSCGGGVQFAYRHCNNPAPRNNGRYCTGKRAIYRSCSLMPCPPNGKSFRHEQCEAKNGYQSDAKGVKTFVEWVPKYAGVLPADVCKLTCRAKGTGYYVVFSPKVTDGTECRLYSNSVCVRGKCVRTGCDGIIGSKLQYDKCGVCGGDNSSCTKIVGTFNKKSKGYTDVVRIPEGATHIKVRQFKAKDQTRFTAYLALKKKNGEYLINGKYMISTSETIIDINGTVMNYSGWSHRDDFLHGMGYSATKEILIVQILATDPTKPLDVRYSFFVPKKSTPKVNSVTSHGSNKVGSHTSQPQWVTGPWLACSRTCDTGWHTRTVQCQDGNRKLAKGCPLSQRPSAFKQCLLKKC
# Chain of human TACE (P78536 whole entry, looked up, change not shown): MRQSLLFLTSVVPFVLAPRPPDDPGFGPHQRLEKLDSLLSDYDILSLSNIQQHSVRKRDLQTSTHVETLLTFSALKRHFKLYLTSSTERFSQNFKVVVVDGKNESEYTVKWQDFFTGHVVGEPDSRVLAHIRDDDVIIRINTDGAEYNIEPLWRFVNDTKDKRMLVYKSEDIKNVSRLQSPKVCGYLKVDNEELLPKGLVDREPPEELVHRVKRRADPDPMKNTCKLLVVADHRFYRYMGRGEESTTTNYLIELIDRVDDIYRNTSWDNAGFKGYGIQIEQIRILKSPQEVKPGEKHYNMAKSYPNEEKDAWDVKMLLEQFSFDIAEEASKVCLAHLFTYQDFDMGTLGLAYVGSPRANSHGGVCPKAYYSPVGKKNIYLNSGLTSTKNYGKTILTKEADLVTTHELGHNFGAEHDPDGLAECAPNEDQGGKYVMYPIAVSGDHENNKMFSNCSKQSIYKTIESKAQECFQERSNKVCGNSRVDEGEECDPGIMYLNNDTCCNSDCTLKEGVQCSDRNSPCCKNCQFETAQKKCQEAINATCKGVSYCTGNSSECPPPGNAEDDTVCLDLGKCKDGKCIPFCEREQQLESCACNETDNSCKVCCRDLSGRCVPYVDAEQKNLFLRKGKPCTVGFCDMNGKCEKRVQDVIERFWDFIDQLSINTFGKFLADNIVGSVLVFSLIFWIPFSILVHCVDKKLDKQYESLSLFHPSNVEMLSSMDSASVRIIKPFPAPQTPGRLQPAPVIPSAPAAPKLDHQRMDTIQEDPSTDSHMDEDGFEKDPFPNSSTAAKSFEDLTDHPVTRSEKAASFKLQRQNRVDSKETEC
SMILES,IC50 (rnADAMTS-5 (1-564-6H)) [nM],IC50 (human TACE) [nM],IC50 (human ADAMTS-5 [1]) [nM],IC50 (human MMP13) [nM],IC50 (human ADAMTS-5 [2]) [nM]
"O=C1NC(=O)C(CCC(=O)N2CCN(c3ccc(Cl)cc3)CC2)(c2ccccc2)N1 (stereo not drawn) [compound 5, 5-[3-[4-(4-chlorophenyl)piperazin-1-yl]-3-oxo-propyl]-5-phenyl-imidazolidine-2,4-dione]",101,> 3330,78,,
"Cc1cc(Cl)ccc1N1CCN(C(=O)CCC2(C)NC(=O)NC2=O)CC1 (stereo not drawn) [compound 17, 5-[3-[4-(4-chloro-2-methyl-phenyl)piperazin-1-yl]-3-oxo-propyl]-5-methyl-imidazolidine-2,4-dione]",> 3940,> 4000,2840,> 20000,
"CC1(CCC(=O)N2CCN(c3ccccc3Cl)CC2)NC(=O)NC1=O (stereo not drawn) [compound 19, 5-[3-[4-(2-chlorophenyl)piperazin-1-yl]-3-oxo-propyl]-5-methyl-imidazolidine-2,4-dione]",> 4000,,> 4000,,> 4000
"Cc1ccc(Cl)cc1N1CCN(C(=O)CCC2(c3ccccc3)NC(=O)NC2=O)CC1 (stereo not drawn) [compound 24, 5-[3-[4-(5-chloro-2-methyl-phenyl)piperazin-1-yl]-3-oxo-propyl]-5-phenyl-imidazolidine-2,4-dione]",132,298,93,,
"Cc1ccc(Cl)cc1N1CCN(C(=O)CCC2(C(C)C)NC(=O)NC2=O)CC1 (stereo not drawn) [compound 33, 5-[3-[4-(5-chloro-2-methyl-phenyl)piperazin-1-yl]-3-oxo-propyl]-5-isopropyl-imidazolidine-2,4-dione]",178,429,134,,
"Cc1ccccc1N1CCN(C(=O)CCC2(C3CC3)NC(=O)NC2=O)CC1 (stereo not drawn) [compound 35, 5-cyclopropyl-5-[3-[4-(o-tolyl)piperazin-1-yl]-3-oxo-propyl]imidazolidine-2,4-dione]",103,> 4000,99,> 20000,
"Cc1ccc(Cl)cc1N1CCN(C(=O)CCC2(c3cccnc3)NC(=O)NC2=O)CC1 (stereo not drawn) [compound 46, 5-[3-[4-(5-chloro-2-methyl-phenyl)piperazin-1-yl]-3-oxo-propyl]-5-(3-pyridyl)imidazolidine-2,4-dione]",42,137,35,,
"CC1(CCC(=O)N2CCN(c3ccc(Cl)c(F)c3)CC2)NC(=O)NC1=O (stereo not drawn) [compound 49, 5-[3-[4-(4-chloro-3-fluoro-phenyl)piperazin-1-yl]-3-oxo-propyl]-5-methyl-imidazolidine-2,4-dione]",141,> 20000,127,,
"CC(C)C1(CCC(=O)N2CCN(c3cc(Cl)cc(Cl)c3)CC2)NC(=O)NC1=O (stereo not drawn) [compound 54, 5-[3-[4-(3,5-dichlorophenyl)piperazin-1-yl]-3-oxo-propyl]-5-isopropyl-imidazolidine-2,4-dione]",91,2270,61,> 20000,
"O=C1NC(=O)C(CCC(=O)N2CCN(c3cccc(Cl)c3)CC2)(c2cccnc2)N1 (stereo not drawn) [compound 56, 5-[3-[4-(3-chlorophenyl)piperazin-1-yl]-3-oxo-propyl]-5-(3-pyridyl)imidazolidine-2,4-dione]",72,3190,38,,
"Cc1cccc(N2CCN(C(=O)CCC3(C4CC4)NC(=O)NC3=O)CC2)c1C (stereo not drawn) [compound 57, 5-cyclopropyl-5-[3-[4-(2,3-dimethylphenyl)piperazin-1-yl]-3-oxo-propyl]imidazolidine-2,4-dione]",117,> 12000,93,,
"Cc1ccccc1N1CCN(C(=O)CCC2(c3cccnc3)NC(=O)NC2=O)CC1 (stereo not drawn) [compound 64, 5-[3-[4-(o-tolyl)piperazin-1-yl]-3-oxo-propyl]-5-(3-pyridyl)imidazolidine-2,4-dine]",165,3140,125,> 20000,
"Cc1ccc(Cl)cc1N1CCN(C(=O)CCC2(c3ccccn3)NC(=O)NC2=O)CC1 (stereo not drawn) [compound 65, 5-[3-[4-(5-chloro-2-methyl-phenyl)piperazin-1-yl]-3-oxo-propyl]-5-(2-pyridyl)imidazolidine-2,4-dione]",65,56,50,> 20000,
"CC1(CCC(=O)N2CCN(c3ccc(F)cc3)CC2)NC(=O)NC1=O (stereo not drawn) [compound 66, 5-[3-[4-(4-fluorophenyl)piperazin-1-yl]-3-oxo-propyl]-5-methyl-imidazolidine-2,4-dione]",1370,> 20000,1310,> 20000,
"O=C1NC(=O)C(CCC(=O)N2CCN(c3cccc(Cl)c3)CC2)(C2CCC2)N1 (stereo not drawn) [compound 70, 5-[3-[4-(3-chlorophenyl)piperazin-1-yl]-3-oxo-propyl]-5-cyclobutyl-imidazolidine-2,4-dione]",205,> 20000,253,> 4000,
"O=C1NC(=O)C(CCC(=O)N2CCN(c3cccc(Cl)c3)CC2)(c2ccc(Cl)cc2)N1 (stereo not drawn) [compound 74, 5-(4-chlorophenyl)-5-[3-[4-(3-chlorophenyl)piperazin-1-yl]-3-oxo-propyl]imidazolidine-2,4-dione]",106,,89,2660,
"Cc1ccc(C2(CCC(=O)N3CCN(c4cccc(Cl)c4)CC3)NC(=O)NC2=O)cc1 (stereo not drawn) [compound 76, 5-[3-[4-(3-chlorophenyl)piperazin-1-yl]-3-oxo-propyl]-5-(p-toy)imidazolidine-2,4-dione]",102,1780,91,2060,
"COc1ccc(C2(CCC(=O)N3CCN(c4cccc(Cl)c4)CC3)NC(=O)NC2=O)cc1 (stereo not drawn) [compound 78, 5-[3-[4-(3-chlorophenyl)piperazin-1-yl]-3-oxo-propyl]-5-(4-methoxyphenyl)imidazolidine-2,4-dione]",96,2660,79,2100,
"COc1ccc(C2(CCC(=O)N3CCN(c4cc(Cl)ccc4C)CC3)NC(=O)NC2=O)cc1 (stereo not drawn) [compound 79, 5-[3-[4-(5-chloro-2-methyl-phenyl)piperazin-1-yl]-3-oxo-propyl]-5-(4-methoxyphenyl)imidazolidine-2,4-dione]",53,277,53,> 20000,
"CN(C)CCOc1ccc(C2(CCC(=O)N3CCN(c4cccc(Cl)c4)CC3)NC(=O)NC2=O)cc1 (stereo not drawn) [compound 80, 5-[3-[4-(3-chlorophenyl)piperazin-1-yl]-3-oxo-propyl]-5-[4-(2-dimethylaminoethyloxy)phenyl]imidazolidine-2,4-dione]",429,> 20000,257,3790,
"Cc1ccccc1N1CCN(C(=O)CCC2(c3ccc(OCCN(C)C)cc3)NC(=O)NC2=O)CC1 (stereo not drawn) [compound 81, 5-[4-(2-dimethylaminoethyloxy)phenyl]-5-[3-[4-(o-toyl)piperazin-1-yl]-3-oxo-propyl]imidazolidine-2,4-dione]",827,,681,,
"Cc1ccccc1N1CCN(C(=O)CCC2(c3ccc(CN(C)C)cc3)NC(=O)NC2=O)CC1 (stereo not drawn) [compound 82, 5-[4-(dimethylaminomethyl)phenyl]-5-[3-[4-(o-toly)piperazin-1-yl]-3-oxo-propyl]imidazolidine-2,4-dione]",2090,,1740,,
"CC1(CCC(=O)N2CCN(c3cncc(F)c3)CC2)NC(=O)NC1=O (stereo not drawn) [compound 84, 5-[3-[4-(5-fluoro-3-pyridyl)piperazin-1-yl]-3-oxo-propyl]-5-methyl-imidazolidine-2,4-dione]",637,,815,,
"CC1(CCC(=O)N2CCN(c3cncc(Cl)c3)CC2)NC(=O)NC1=O (stereo not drawn) [compound 85, 5-[3-[4-(5-chloro-3-pyridyl)piperazin-1-yl]-3-oxo-propyl]-5-methyl-imidazolidine-2,4-dione]",1110,> 4000,1270,> 20000,
"CC1(CCC(=O)N2CCN(c3cncc(Br)c3)CC2)NC(=O)NC1=O (stereo not drawn) [compound 86, 5-[3-[4-(5-bromo-3-pyridyl)piperazin-1-yl]-3-oxo-propyl]-5-methyl-imidazolidine-2,4-dione]",1790,> 4000,1700,> 20000,
"Cc1ccc(C)c(N2CCN(C(=O)CCC3(c4ccccn4)NC(=O)NC3=O)CC2)c1 (stereo not drawn) [compound 87, 5-[3-[4-(2,5-dimethylphenyl)piperazin-1-yl]-3-oxo-propyl]-5-(2-pyridyl)imidazolidine-2,4-dione]",113,120,137,> 20000,
"Cc1ccc(C)c(N2CCN(C(=O)CCC3(c4cccnc4)NC(=O)NC3=O)CC2)c1 (stereo not drawn) [compound 88, 5-[3-[4-(2,5-dimethylphenyl)piperazin-1-yl]-3-oxo-propyl]-5-(3-pyridyl)imidazolidine-2,4-dione]",119,211,119,> 20000,
"Cc1cccc(N2CCN(C(=O)CCC3(c4ccccn4)NC(=O)NC3=O)CC2)c1C (stereo not drawn) [compound 101, 5-[3-[4-(2,3-dimethylphenyl)piperazin-1-yl]-3-oxo-propyl]-5-(2-pyridyl)imidazolidine-2,4-dione]",165,,154,,
"Cc1ccc(Cl)cc1N1CCN(C(=O)CCC2(C(C)(C)C)NC(=O)NC2=O)CC1 (stereo not drawn) [compound 108, 5-tert-butyl-5-[3-[4-(5-chloro-2-methyl-phenyl)piperazin-1-yl]-3-oxo-propyl]imidazolidine-2,4-dione]",410,,320,,
"Cc1ccc(Cl)cc1N1CCN(C(=O)CCC2(C3CCCC3)NC(=O)NC2=O)CC1 (stereo not drawn) [compound 110, 5-[3-[4-(5-chloro-2-methyl-phenyl)piperazin-1-yl]-3-oxo-propyl]-5-cyclopentyl-imidazolidine-2,4-dione]",299,,297,,
